The target of this assay is T1, 5-HT3 (Homo sapiens, UniProt P46098).
T1 sequence (P46098 24-478): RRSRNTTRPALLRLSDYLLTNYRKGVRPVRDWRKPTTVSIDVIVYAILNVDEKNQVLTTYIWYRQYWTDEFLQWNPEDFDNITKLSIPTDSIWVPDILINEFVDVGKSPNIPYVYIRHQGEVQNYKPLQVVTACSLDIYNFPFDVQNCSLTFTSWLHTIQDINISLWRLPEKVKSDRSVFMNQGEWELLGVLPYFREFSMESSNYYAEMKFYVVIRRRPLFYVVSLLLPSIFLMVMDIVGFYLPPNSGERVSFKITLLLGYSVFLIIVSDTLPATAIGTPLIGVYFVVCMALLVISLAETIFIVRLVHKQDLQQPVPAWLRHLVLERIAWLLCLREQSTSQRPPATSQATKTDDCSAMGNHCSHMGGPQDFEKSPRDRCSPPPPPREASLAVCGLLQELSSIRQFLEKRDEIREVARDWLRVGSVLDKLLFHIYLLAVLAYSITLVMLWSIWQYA
Description: Compound affinity for the human 5-HT3 receptor (Assay B), SPA radioligand binding with [9-methyl-3H]BRL-43694. On the set-up: purchased Perkin Elmer. As to conditions: Assay B (method B unless otherwise annotated); read-out: 5-HT3 Ki. The method, then:
Compound Affinity for the human 5-HT3 Receptor (Assay B)
The relative affinity of the various compounds for the human 5-HT3 receptor was measured in a radioligand binding assay, using a scintillation proximity assay (SPA) format. Test compounds were dissolved to 10 mM in 100% DMSO, then serially diluted at 10× assay concentrations in 100% DMSO in 96-well polypropylene plates and further diluted to 4× assay concentrations with the assay buffer. […] Binding reactions were set up in wells of PicoPlates-96 (Perkin Elmer) by adding consecutively 50 μL of each competing compound or buffer, SPA beads, the radioligand and 5-HT3 receptor membranes. After 60-min incubation at room temperature on a Nutator mixer, plates were centrifuged for 15 min at 1,500 rpm, followed by incubation in the dark for 30 min. Radioactivity was counted in the TopCount microplate counter (Perkin Elmer) for 5 min. […] Specific binding was determined by subtracting nonspecific binding from total binding. All experiments were performed in duplicate using ten concentrations of a competing ligand, with ondansetron included as a control in every run. IC50 values were determined from specific binding data using XLfit4.1 curve fitting software from IDBS Ltd. Ki values were then calculated from the Cheng-Prusoff equation.

The text below walks through data of US7863271B2, “2-aminobenzoxazole carboxamides as 5HT3 modulators” (Albany Molecular Research, Inc., priority 2006, dated 2011).

One may read the Ki as a measure of affinity in units of concentration, obtained from inhibition or displacement.

Structures can show the parent of a compound that is named as a salt.

`CN1C2CCCC1CC(NC(=O)c1cccc3oc(N4CCNC[C@@H]4C(C)(C)C)nc13)C2` (stereo partly drawn) [Example 96, Endo-N-(9-Methyl-9-azabicyclo[3.3.1]nonan-3-yl)-2-((S)-2-tert-butylpiperazin-1-yl)benzoxazole-4-carboxamide Hydrochloride]: the Ki was 7.5 nM.
Take `C[C@H]1CN(Cc2ccccc2)C[C@H](C)N1c1nc2c(C(=O)NC3CC4CCCC(C3)N4C)cccc2o1` (stereo partly drawn) [Example 148, Endo-N-(9-methyl-9-azabicyclo[3.3.1]nonan-3-yl)-2-((2S,6S)-4-benzyl-2,6-dimethylpiperazin-1-yl)benzoxazole-4-carboxamide Hydrochloride]: the Ki came to 1.6 nM.
The result for `CC(C)N(C)c1nc2c(C(=O)N[C@@H]3CN4CCC3CC4)cccc2o1` [Example 85, (S)—N-(quinuclidine-8-yl)-2-(isopropyl(methyl)amino)benzoxazole-4-carboxamide Hydrochloride] reads 28.9 nM; that for `CN1[C@@H]2CCC[C@H]1C[C@@H](NC(=O)c1cc(F)cc3oc(N)nc13)C2` [Example 121, Endo-2-amino-6-fluoro-N-(9-Methyl-9-azabicyclo[3.3.1]nonan-3-yl)benzoxazole-4-carboxamide Hydrochloride], 9 nM.
The same measure for `Cc1cc(C(=O)NC2CN3CCC2CC3)c2nc(N)oc2c1` [Example 127, (S)—N-(quinulidin-8-yl)-2-amino-6-methylbenzoxazole-4-carboxamide Hydrochloride]: 20 nM; for `CN(C)c1nc2c(C(=O)N[C@@H]3CN4CCC3CC4)cc(Cl)cc2o1` [Example 108, (S)—N-(quinuclidine-8-yl)-6-chloro-2-(dimethylamino)benzoxazole-4-carboxamide Hydrochloride]: 14.4 nM; for `C[C@H]1COC[C@H](C)N1c1nc2c(C(=O)NC3CC4COCC(C3)N4C)cccc2o1` (stereo partly drawn) [Example 88, Endo-N-(9-Methyl-3-oxa-9-azabicyclo[3.3.1]nonan-7-yl) 2-((3 S,5S)-3,5-dimethylmorpholino)benzoxazole-4-carboxamide Hydrochloride]: 19.9 nM.
Regarding `CN1CCCN(c2nc3c(C(=O)N[C@H]4C[C@H]5CCC[C@@H](C4)N5C)cccc3o2)CC1` [Example 11, Endo-N-(9-Methyl-9-azabicyclo[3.3.1]non-3-yl)-2-(4-methyl-1,4-diazepam-1-yl)benzoxazole-4-carboxamide Dihydrochloride], the Ki stood at 89.6 nM.
`C[C@H]1CN(Cc2ccccc2)C(=O)[C@H](C)N1c1nc2c(C(=O)N[C@@H]3CN4CCC3CC4)cccc2o1` [Example 142, (S)—N-(quinuclidine-8-yl) 2-((2S,6S)-4-benzyl-2,6-dimethyl-3-oxopiperazine-1-yl)benzoxazole-4-carboxamide Hydrochloride]: the Ki was 11.5 nM.
The result for `CN1CCN(c2nc3c(C(=O)N[C@H]4C[C@H]5CCC[C@@H](C4)N5C)cc(Cl)cc3o2)CC1` [Example 58, Endo-N-(9-methyl-9-azabicyclo[3.3.1]nonan-3-yl)-6-chloro-2-(4-methylpiperazin-1-yl)benzoxazole-4-carboxamide Hydrochloride] reads 11.9 nM.
The same measure for `CN1[C@@H]2CCC[C@H]1C[C@@H](NC(=O)c1cc(Cl)cc3oc(N)nc13)C2` [Example 111, Endo-2-amino-6-chloro-N-(9-Methyl-9-azabicyclo[3.3.1]nonan-3-yl)benzoxazole-4-carboxamide Hydrochloride]: 2 nM; for `C[C@H]1CN(CC(F)(F)F)C[C@H](C)N1c1nc2c(C(=O)NC3CC4CCCC(C3)N4C)cccc2o1` (stereo partly drawn) [Example 137, Endo-N-(9-methyl-9-azabicyclo[3.3.1]nonan-3-yl)-2-((2S,6S)-2,6-dimethyl-4-(2,2,2-trifluoroethyl)piperazin-1-yl)benzoxazole-4-carboxamide Hydrochloride]: 1.8 nM; for `CN1CCN(c2nc3c(C(=O)N[C@H]4C[C@H]5CCC[C@@H](C4)N5C)cccc3o2)CC1` [Example 1, Endo-N-(9-Methyl-9-azabicyclo[3.3.1]non-3-yl)-2-(4-methylpiperazin-1-yl)benzoxazole-4-carboxamide Dihydrochloride]: 85 nM.
The same measure for `CN1[C@@H]2CCC[C@H]1C[C@@H](NC(=O)c1cccc3oc(NCCN4CCOCC4)nc13)C2` [Example 33, Endo-N-(9-Methyl-9-azabicyclo[3.3.1]nonan-3-yl)-2-(2-morpholinoethylamino)benzoxazole-4-carboxamide Trihydrochloride]: 168 nM; for `CN1C2CCCC1CC(NC(=O)c1cccc3oc(N4CCOC[C@@H]4C(C)(C)C)nc13)C2` (stereo partly drawn) [Example 68, Endo-N-(9-Methyl-9-azabicyclo[3.3.1]nonan-3-yl)-2-((S)-3-tert-butylmorpholino)benzoxazole-4-carboxamide Hydrochloride]: 2 nM; for `CN(C)c1nc2c(C(=O)N[C@H]3C[C@H]4CCC[C@@H](C3)N4C)cccc2o1` [Example 7, Endo-N-(9-Methyl-9-azabicyclo[3.3.1]non-3-yl)-2-(dimethylamino)benzoxazole-4-carboxamide Hydrochloride]: 6.1 nM.
For `CN1[C@@H]2CCC[C@H]1C[C@@H](NC(=O)c1cccc3oc(N4CCNCC45CCCC5)nc13)C2` [Example 100, Endo-N-(9-Methyl-9-azabicyclo[3.3.1]nonan-3-yl)-2-(6,9-diazaspiro[4.5]decan-6-yl)benzoxazole-4-carboxamide Hydrochloride], the Ki amounted to 11.4 nM.
With `CC(C)[C@H]1CNCCN1c1nc2c(C(=O)NC3CC4CCCC(C3)N4C)cccc2o1` (stereo partly drawn) [Example 76, Endo-N-(9-Methyl-9-azabicyclo[3.3.1]nonan-3-yl)-2-((S)-2-isopropylpiperazin-1-yl)benzoxazole-4-carboxamide Hydrochloride], the inhibitory constant (Ki) is 9.8 nM.
The same measure for `CN1[C@@H]2CCC[C@H]1C[C@@H](NC(=O)c1cccc3oc(N4CCn5c(nnc5C(F)(F)F)C4)nc13)C2` [Example 54, Endo-N-(9-Methyl-9-azabicyclo[3.3.1]nonan-3-yl)-2-(3-(trifluoromethyl)-5,6-dihydro-[1,2,4]triazolo[4,3-a]pyrazin-7(8H)-yl)benzoxazole-4-carboxamide Hydrochloride]: 118 nM.
`CN1C2CCCC1CC(NC(=O)c1cccc3oc(NC4CC5CCCC(C4)N5C)nc13)C2` (stereo not drawn) [Example 37, Endo-N-(9-Methyl-9-azabicyclo[3.3.1]nonan-3-yl)-2-(9-Methyl-9-azabicyclo[3.3.1]non-3-ylamino)benzoxazole-4-carboxamide Trihydrochloride]: the Ki was 243 nM.
The result for `CN1[C@@H]2CCC[C@H]1C[C@@H](NC(=O)c1cccc3oc(N4CCN(c5ncccn5)CC4)nc13)C2` [Example 42, Endo-N-(9-Methyl-9-azabicyclo[3.3.1]nonan-3-yl)-2-(4-(pyrimidin-2-yl)piperazin-1-yl)benzoxazole-4-carboxamide Hydrochloride] reads 11 nM; that for `Nc1nc2c(C(=O)NC3CN4CCC3CC4)c(F)ccc2o1` [Example 139, (S)—N-(quinulidin-8-yl)-2-amino-5-fluorobenzoxazole-4-carboxamide Hydrochloride], 67.4 nM; that for `CN1C[C@H]2C[C@@H](NC(=O)c3cccc4oc(Nc5ccccc5)nc34)C[C@@H](C1)N2C` [Example 51, Endo-N-(3,9-Dimethyl-3,9-diazabicyclo[3.3.1]nonan-7-yl)-2-(phenylamino)benzoxazole-4-carboxamide Hydrochloride], 212 nM.
In the case of `CC(C)C(=O)N1C[C@H](C)N(c2nc3c(C(=O)NC4CC5CCCC(C4)N5C)cccc3o2)[C@@H](C)C1` (stereo partly drawn) [Example 135, Endo-N-(9-methyl-9-azabicyclo[3.3.1]nonan-3-yl)-2-((2S,6S)-4-isobutyryl-2,6-dimethylpiperazin-1-yl)benzoxazole-4-carboxamide Hydrochloride], the Ki was found to be 2 nM.
The result for `Cc1nc[nH]c1CNC(=O)c1cc(Cl)cc2oc(N)nc12` [Example 145, N-((4-methyl-1H-imidazol-5-yl)methyl)-2-amino-6-chlorobenzoxazole-4-carboxamide] reads 127 nM; that for `CC(=O)N1C[C@H](C)N(c2nc3c(C(=O)NC4CC5CCCC(C4)N5C)cccc3o2)[C@@H](C)C1` (stereo partly drawn) [Example 110, Endo-N-(9-Methyl-9-azabicyclo[3.3.1]nonan-3-yl)-2-((2S,6S)-4-acetyl-2,6-dimethylpiperazin-1-yl)benzoxazole-4-carboxamide Hydrochloride], 2.2 nM.
The result for `C[C@H]1CNCCN1c1nc2c(C(=O)N[C@H]3C[C@H]4CCC[C@@H](C3)N4C)cccc2o1` [Example 41a, Endo-N-(9-Methyl-9-azabicyclo[3.3.1]nonan-3-yl)-2-[(S)-2-methylpiperazin-1-yl]benzoxazole-4-carboxamide Hydrochloride] reads 14.2 nM.
